# Measured values published in US12146004B2, “Polymyxin compounds and uses thereof” (priority 2014, dated 2024).
# Like-named read-outs stand apart in the source and are kept apart here.
# Tests used:
# Format in all cases: cell-based
# Pseudomonas aeruginosa = tested on: Pseudomonas aeruginosa
# Protocol: (§1) To evaluate the potency and spectrum of the compounds, susceptibility testing was performed against up to nine strains of each of the Gram negative pathogens, Escherichia coli, Pseudomonas aeruginosa, Klebsiella pneumoniae and Acinetobacter baumannii.
# (§2) The values in Table 2 are MIC (μg/mL) against strains of E. coli, K. pneumoniae, P. aeruginosa and A. baumanii, including strains which show elevated MICs to Polymyxin.
# (§3) The values in Table 2A are MIC (μg/mL).
# (§4) The in vitro activity of compounds 26 and C7 (FADDI-02) against resistant bacterial strains was compared. The resistant strains included including Escherichia coli, Pseudomonas aeruginosa, Klebsiella pneumoniae and Acinetobacter baumannii strains. The data is provided in Table 2C, where the strains are identified. The values in Table 2 are MIC (μg/mL).
# Acinetobacter baumannii = tested on: Acinetobacter baumannii
# Protocol: as §1, §2, §3, §4
# Escherichia coli = tested on: Escherichia coli
# Protocol: as §1, §2, §3, §4
# Klebsiella pneumoniae = tested on: Klebsiella pneumoniae
# Protocol: as §1, §2, §3, §4
Molecule,MIC P. aeruginosa 068 (Pseudomonas aeruginosa) [µg/mL],MIC P. aeruginosa 070 (Pseudomonas aeruginosa) [µg/mL],MIC A. baumanii 053 (Acinetobacter baumannii) [µg/mL],MIC A. baumanii 056 (Acinetobacter baumannii) [µg/mL],MIC A. baumanii ATCC BAA-747 (Acinetobacter baumannii) [µg/mL],MIC E. coli 058 (Escherichia coli) [µg/mL],MIC E. coli 059 (Escherichia coli) [µg/mL],MIC E. coli 060 (Escherichia coli) [µg/mL],MIC E. coli 061 (Escherichia coli) [µg/mL],MIC E. coli ATCC 25922 (Escherichia coli) [µg/mL],MIC K. pneumoniae 062 (Klebsiella pneumoniae) [µg/mL],MIC K. pneumoniae 063 (Klebsiella pneumoniae) [µg/mL],MIC K. pneumoniae 064 (Klebsiella pneumoniae) [µg/mL],MIC K. pneumoniae 065 (Klebsiella pneumoniae) [µg/mL],MIC K. pneumoniae 066 (Klebsiella pneumoniae) [µg/mL],MIC K. pneumoniae 067 (Klebsiella pneumoniae) [µg/mL],MIC K. pneumoniae ATCC 4352 (Klebsiella pneumoniae) [µg/mL],MIC P. aeruginosa ATCC 27853 (Pseudomonas aeruginosa) [µg/mL],further results
2-Aminomethyl-4- methyl pentanoyl polymyxin L-Thr-L-Dap- polymyxin [D-{4-(4- trifluoromethyl) phenyl} Phe]-6]heptapeptide. Isomer 1 [Example 19],,,,,,,,,,,,,,,,,,,MIC P. aeruginosa ATCC 27853 (Pseudomonas aeruginosa; strain ATCC 27853): 2 µg/mL; MIC A. baumanii ATCC BAA-747 (Acinetobacter baumannii; strain ATCC BAA-747): 1 µg/mL; MIC E. coli 058 (Escherichia coli; strain 058): 16 µg/mL; MIC E. coli ATCC 25922 (Escherichia coli; strain ATCC 25922): 1 µg/mL; MIC K. pneumoniae 065 (Klebsiella pneumoniae; strain 065): 16 µg/mL; MIC K. pneumoniae ATCC 4352 (Klebsiella pneumoniae; strain ATCC 4352): 1 µg/mL
"CC(C)C[C@@H]1NC(=O)[C@@H](CC2CCCCC2)NC(=O)[C@H](CCN)NC(=O)[C@@H](NC(=O)[C@H](CCN)NC(=O)[C@@H](NC(=O)CC(CN)CC2CCCCC2)[C@@H](C)O)CCNC(=O)[C@H]([C@@H](C)O)NC(=O)[C@H](CCN)NC(=O)[C@H](CCN)NC1=O (single isomer, unassigned) [Example 72, 4-amino-3-(cyclohexylmethyl) butanoyl polymyxin [D-cyclohexylalanine]-6 nonapeptide]",,,,,,,,,,,,,,,,,,,MIC P. aeruginosa 068 (Pseudomonas aeruginosa; strain 068): 4 µg/mL; MIC P. aeruginosa 070 (Pseudomonas aeruginosa; strain 070): 8 µg/mL; MIC P. aeruginosa ATCC 27853 (Pseudomonas aeruginosa; strain ATCC 27853): 0.25 µg/mL; MIC P. aeruginosa CCUG 59347 (Pseudomonas aeruginosa; strain CCUG 59347): 0.5 µg/mL; MIC A. baumanii 053 (Acinetobacter baumannii; strain 053): 64 µg/mL; MIC A. baumanii 056 (Acinetobacter baumannii; strain 056): 16 µg/mL; MIC A. baumanii ATCC BAA-747 (Acinetobacter baumannii; strain ATCC BAA-747): 0.25 µg/mL; MIC A. baumanii NCTC 13424 (Acinetobacter baumannii; strain NCTC 13424): 0.125 µg/mL; MIC E. coli 058 (Escherichia coli; strain 058): 2 µg/mL; MIC E. coli 061 (Escherichia coli; strain 061): 8 µg/mL; MIC E. coli ATCC 25922 (Escherichia coli; strain ATCC 25922): 0.25 µg/mL; MIC E. coli NCTC 9001 (Escherichia coli; strain NCTC 9001): 0.25 µg/mL; MIC K. pneumoniae 063 (Klebsiella pneumoniae; strain 063): 8 µg/mL; MIC K. pneumoniae 065 (Klebsiella pneumoniae; strain 065): 0.5 µg/mL; MIC K. pneumoniae ATCC 13882 (Klebsiella pneumoniae; strain ATCC 13882): 0.25 µg/mL
"CCCCCCCCC1CNCC1C(=O)N[C@H](C(=O)N[C@@H](CCN)C(=O)N[C@H]1CCNC(=O)[C@H]([C@@H](C)O)NC(=O)[C@H](CCN)NC(=O)[C@H](CCN)NC(=O)[C@H](CC(C)C)NC(=O)[C@@H](Cc2ccc(-c3ccccc3)cc2)NC(=O)[C@H](CCN)NC1=O)C(C)O (single isomer, unassigned; isomer 1) [Example 7, trans-4-octylpyrrolidine-3-carbonyl polymyxin [D-(4-phenyl)Phe]-6] nonapeptide. Isomer 1]",2,2,8,4,1,2,1,4,8,1,16,32,8,1,4,32,1,,
"CCCCCCCCC1CNCC1C(=O)N[C@H](C(=O)N[C@@H](CCN)C(=O)N[C@H]1CCNC(=O)[C@H]([C@@H](C)O)NC(=O)[C@H](CCN)NC(=O)[C@H](CCN)NC(=O)[C@H](CC(C)C)NC(=O)[C@@H](Cc2ccccc2-c2ccccc2)NC(=O)[C@H](CCN)NC1=O)C(C)O (single isomer, unassigned; isomer 1) [Example 9, trans-4-octylpyrrolidine-3-carbonyl polymyxin [D-(2-phenyl)Phe]-6] nonapeptide. Isomer 1]",2,2,64,32,1,2,2,4,8,1,64,>64,64,8,32,>64,0.5,1,
"CC(C)CC1CNCC(C(=O)N[C@H](C(=O)N[C@@H](CN)C(=O)N[C@H]2CCNC(=O)[C@H]([C@@H](C)O)NC(=O)[C@H](CCN)NC(=O)[C@H](CCN)NC(=O)[C@H](CC(C)C)NC(=O)[C@@H](Cc3ccc(Br)cc3)NC(=O)[C@H](CCN)NC2=O)C(C)O)C1 (single isomer, unassigned; isomer 1) [Example 11, (trans-5-(isobutyl-piperidine)-3-carbonyl L-Thr-L-Dap-polymyxin [D-(4-bromo Phe)]-6] hept apeptide Isomer 1]",8,16,>64,32,2,16,32,16,64,1,>64,>64,>64,64,>64,>64,1,1,
"CC(C)CC(CN)C(=O)N[C@H](C(=O)N[C@@H](CN)C(=O)N[C@H]1CCNC(=O)[C@H]([C@@H](C)O)NC(=O)[C@H](CCN)NC(=O)[C@H](CCN)NC(=O)[C@H](CC(C)C)NC(=O)[C@@H](Cc2ccc(Br)cc2)NC(=O)[C@H](CCN)NC1=O)C(C)O (single isomer, unassigned; isomer 1) [Example 13, 2-aminomethyl-4-methyl pentanoyl polymyxin L-Thr-L-Dap-polymyxin [D-(4-bromo Phe)]-6]heptapeptide. Isomer 1]",32,64,>64,>64,>8,32,32,32,>64,1,>64,>64,>64,>64,>64,>64,0.5,0.5,
"CC(C)CC(CN)C(=O)N[C@H](C(=O)N[C@@H](CN)C(=O)N[C@H]1CCNC(=O)[C@H]([C@@H](C)O)NC(=O)[C@H](CCN)NC(=O)[C@H](CCN)NC(=O)[C@H](CC(C)C)NC(=O)[C@@H](Cc2ccc(-c3ccccc3)cc2)NC(=O)[C@H](CCN)NC1=O)C(C)O (single isomer, unassigned; isomer 1) [Example 15, 2-aminomethyl-4-mehtly pentanoyl polymyxin L-Thr-L-Dap-polymyxin [D-(4-phenyl Phe)]-6]heptapeptide. Isomer 1]",16,32,>64,>64,8,32,16,32,64,1,>64,>64,>64,64,64,>64,0.5,1,
"CCCCCC/C=C/c1ccc(C[C@H]2NC(=O)[C@H](CCN)NC(=O)[C@@H](NC(=O)[C@H](CN)NC(=O)[C@@H](NC(=O)C3CNCC(CC(C)C)C3)C(C)O)CCNC(=O)[C@H]([C@@H](C)O)NC(=O)[C@H](CCN)NC(=O)[C@H](CCN)NC(=O)[C@H](CC(C)C)NC2=O)cc1 (single isomer, unassigned; isomer 1) [Example 17, (trans-5-(isobutyl-piperidine)-3-carbonyl L-Thr-L-Dap-polymyxin [D-(4-(E)-oct-1-enyl) Phe]-6]heptapeptide Isomer 1]",4,4,2,2,2,2,2,2,2,2,4,16,8,4,,32,2,2,
